The record followed here is patent US11596623B2, “Methods for treating virus infection or proliferation” (HOWARD UNIVERSITY, priority 2018, dated 2023).

One test has as its system HSV-1. Briefly: HSV-1 cytopathic effect in HEp-2 cells under microscope. The format is cell-based. The note with it: 24 h, different concentrations, versus DMSO. On the procedure:
The HSV-1 virus and the indicated concentration of compounds were added and incubated for 24 h. After washing way the virus with PBS, image was taken under a compound microscope.
Background: Cytopathic effects are the visible damage that an infection or toxin causes in cultured cells.

The target of the next test is T1, RACK1 (Homo sapiens, UniProt P63244).
T1 construct: endogenous in cells; host or cells: HEp-2 cells (human laryngeal carcinoma line), virus-infected
Briefly: RACK1 protein western in EV-D68 infected HEp-2 cells. As to conditions: 48 h. The format is cell-based. On the procedure: HEp-2 cells were grown to 80-90% confluency in Dulbecco's Modified Eagle's medium (DMEM) supplemented with 10% fetal calf serum (FCS) and 1% penicillin-streptomycin (PS) and fungicide. The virus and the indicated concentration of compounds were added and incubated for 48 h. After washing with PBS, the cell lysates were collected and were run in a Biorad XT-Criterion gel and transferred to a PVDF membrane. The membrane was blotted with an antibody directed against the EVD68 major structural protein VP1 purchased from Genetex (Irvine, Calif.). An anti-mouse IgG-HRP secondary antibody and Biorad's Western ECL substrate-Clarity was used to label the bands and the image was obtained in a Biorad Gel doc system. […] The tubulin antibody was used as the loading control.
HEp-2 cells were grown to 80-90% confluency in Dulbecco's Modified Eagle's medium (DMEM) supplemented with 10% fetal calf serum FCS and 1% penicillin-streptomycin (PS) and fungicide. The representative virus (EV-D68) and the indicated concentration of compounds were added and incubated for 48 h. After washing with PBS, the cell lysates were collected and were run in a Biorad XT-Criterion gel and transferred to a PVDF membrane. The membrane was blotted with an antibody directed against the EV-D68 major structural protein VP1 purchased from Genetex (Irvine, Calif.). […]

A further test deals with RACK1A protein. Briefly: RACK1 protein expression under salt stress, western blot. In kind it is in vivo. As to conditions: Arabidopsis lysates. From the text:
The abundant leaf protein Rubisco large subunit (RbcL) was used as a loading control for the blot. The 37 kD RACK1 band was absent from the genetic knockout of RACK1 plants (double mutant-rack1ab lane).
The reported positive expression of RACK1A protein under salt stress condition in Arabidopsis has led us to examine the RACK1A expression in the presence and absence of the inhibitor compounds during salt stresses. We determined that the RACK1A protein expression was specifically modulated by the inhibitor compounds when the lysates with salt or without salt in the presence and absence of the small compounds were probed with an antibody raised by using the full length RACK1A protein as antigen (Agrisera, Vännäs, Sweden, FIG. 2C). […] However, whether the effect of SD29-12 is Arabidopsis salt stress specific condition needs further experimental evidence. As the antibody cross-reacts with all three RACK1 isoforms in Arabidopsis, we used the double knockout (rack1ab) as a negative control on the blot (triple mutant is lethal at the early seedling stage). The large subunit of the abundant leaf protein rubisco (RbcL) was used as loading control for this blot. As the results support the in-silico based prediction, we set out to investigate the effect of the compounds on the mammalian RACK1 based virus proliferation.
On the technique in general: In western blotting, separated proteins are transferred to a membrane and probed.

The target in test [1] is T2, recombinant RACK1A protein (Oryza sativa subsp. japonica, UniProt Q6L4F8).
T2 construct: His tag (C); made in house; host or cells: E. coli BL21(DE3)
T2 sequence (Q6L4F8 whole entry): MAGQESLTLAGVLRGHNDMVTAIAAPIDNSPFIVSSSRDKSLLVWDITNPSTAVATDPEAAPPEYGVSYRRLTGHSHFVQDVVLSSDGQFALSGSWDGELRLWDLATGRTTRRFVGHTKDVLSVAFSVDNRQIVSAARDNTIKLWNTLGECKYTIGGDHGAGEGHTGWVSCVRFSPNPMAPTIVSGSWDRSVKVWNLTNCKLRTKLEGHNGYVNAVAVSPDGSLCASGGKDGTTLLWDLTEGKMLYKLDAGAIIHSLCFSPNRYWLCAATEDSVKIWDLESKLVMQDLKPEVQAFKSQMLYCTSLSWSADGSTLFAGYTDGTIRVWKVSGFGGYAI
Briefly: Surface Plasmon Resonance (SPR) binding assay. The arrangement: species or system rice. The note with it: immobilized recombinant RACK1A, KD50=kd/ka. On the procedure: SD-29 (left panel) and SD-29-12 (right panel) were separately injected three times on the CM5 chip at 0, 1.56 μM, at 3.13 μM, 6.25 μM, 12.5 μM, 25 μM, 50 μM, and 100 μM (top sensor) concentrations (left panel) and at 3.13 μM, 6.25 μM, 12.5 μM, 25 μM, 50 μM, and 100 μM (top sensor) concentrations (right panel).
To obtain in vitro confirmation of the binding of the isolated compounds to the purified RACK1 protein, the small compound SD-29 and its structural analog SD29-12 were evaluated for their binding potential with the recombinant RACK1A proteins using the Surface Plasmon Resonance (SPR) chip. SPR experiments were carried out with a Biacore T200 equipped with a CM5 sensor chip. Briefly, recombinant RACK1A cysteine-tagged protein was immobilized on flow cell (FC) 2 in HEPES buffered saline (10 mM Hepes, pH 7.4, and 150 mM NaCl, 3 mM CaCl2)) using a thiol-coupling kit according to the manufacturer's protocol, resulting in immobilization levels of 4580 response units (RU). FC1 was only activated and inactivated and used as a reference. SD-29 stock solution was diluted to a final concentration of 100, 75, 50, 25, 10 μM and 1 μM injected in 10 mM Hepes, 150 mM NaCl, 3 mM CaCl2), 1% DMSO, and 0.5% P20. Each injection was repeated three times for 60 s. […] KD50 is calculated by the equation: KD50=kd/ka; kd—dissociation rate constant, ka—association rate constant. […]

`Nn1c(S)nnc1-c1cc(Cl)cc(Cl)c1` [SD29-14]: the “cytopathic effect of HSV-1” value with HSV-1 is “do not show the cytopathic effect”. On RACK1, the RACK1 protein level result is on record as “loss of RACK1 protein”.
As usually defined, the Kd is a measure of binding affinity in units of concentration. For the compound `Nn1c(S)nnc1-c1ccc(F)cc1` [SD-29], the “RACK1 protein expression under salt stress” value in the test on RACK1A protein is recorded as “inhibited RACK1 protein expression”. In addition, the Kd in test [1] amounted to 42 µM.
